# Values quoted from earlier work as cited in article PMC5526139 (Xenobiotica; the Fate of Foreign Compounds in Biological …, 2016).
# Set-up: method as in Zhang et al., 2011
# Details: ref Zhang et al., 2011
structure (smiles),measurement,setting,value
"CC(O)Cn1c(=O)c(Oc2ccc(F)cc2F)cc2cnc(NC(C)CO)nc21 (centres unmarked) [6-(2,4-difluorophenoxy)-2-[(1-hydroxypropan-2-yl)amino]-8-(2-hydroxypropyl)-7H,8H-pyrido[2,3-d]pyrimidin-7-one]",half-life in Phase 1 clinical trial,man,0.7 h
same,predicted half-life in man,prediction before the clinical trial,6 h
